Common to all, as to format: functional
For experiment [1], the system named is Staphylococcus aureus. Nature of the experiment: Antibacterial activity against Staphylococcus aureus OC4172.
The test system of experiment [2] is Streptococcus pneumoniae. Nature of the experiment: Antibacterial activity against Streptococcus pneumoniae OC9132.
The subject of experiment [3] is Streptococcus pneumoniae. Briefly: Antibacterial activity against erm(B) ribosomal methylase gene containing Streptococcus pneumoniae OC4051.
The test system of experiment [4] is Streptococcus pneumoniae. Nature of the experiment: Antibacterial activity against Mef(A) efflux pump containing Streptococcus pneumoniae OC4438.
In experiment [5] the test system is Haemophilus influenzae. Nature of the experiment: Antibacterial activity against Haemophilus influenzae OC4882.

In brackets after ≈: the same amount, converted by molar mass. Bounds are passed on as bounds.

With `CC[C@H]1OC(=O)[C@H](C)[C@@H](OC(=O)C(C)C)[C@H](C)[C@@H](O[C@@H]2O[C@H](C)C[C@H](N(C)C)[C@H]2O)[C@](C)(OC(=O)NC/C=C/c2ccc(-c3cccnn3)cc2)C[C@@H](C)C(=O)[C@H](C)[C@H]2NC(=O)O[C@@]21C`, the MIC in experiment [1] is 0.5 µg/mL (≈ 0.551 µM); in experiment [2], 0.06 µg/mL (≈ 0.0661 µM); in experiment [3], 0.12 µg/mL (≈ 0.132 µM); in experiment [4] it was 0.06 µg/mL (≈ 0.0661 µM); in experiment [5], 2 µg/mL (≈ 2.2 µM).

As to `CC[C@H]1OC(=O)[C@H](C)[C@@H](OC(=O)N(CC)CC)[C@H](C)[C@@H](O[C@@H]2O[C@H](C)C[C@H](N(C)C)[C@H]2O)[C@](C)(OC(=O)NC/C=C/c2ccc(-c3ncccn3)cc2)C[C@@H](C)C(=O)[C@H](C)[C@H]2NC(=O)O[C@@]21C`, the MIC in experiment [1] stood at 0.5 µg/mL (≈ 0.534 µM); in experiment [2], 0.06 µg/mL (≈ 0.064 µM); in experiment [3] it was 0.12 µg/mL (≈ 0.128 µM); in experiment [4], 0.06 µg/mL (≈ 0.064 µM); in experiment [5], 8 µg/mL (≈ 8.54 µM).

Take `CC[C@H]1OC(=O)[C@H](C)[C@@H](OC(=O)C(C)C)[C@H](C)[C@@H](O[C@@H]2O[C@H](C)C[C@H](N(C)C)[C@H]2O)[C@](C)(OC(=O)NC/C=C/c2cnc3ccccc3c2)C[C@@H](C)C(=O)[C@H](C)[C@H]2NC(=O)O[C@@]21C`: the MIC in experiment [1] was found to be 0.25 µg/mL (≈ 0.284 µM); in experiment [2], 0.03 µg/mL (≈ 0.034 µM); in experiment [3] it was 0.06 µg/mL (≈ 0.0681 µM); in experiment [4] it was 0.03 µg/mL (≈ 0.034 µM); in experiment [5], 4 µg/mL (≈ 4.54 µM).

On to `CC[C@H]1OC(=O)[C@H](C)[C@@H](OC(=O)N2CCCC2)[C@H](C)[C@@H](O[C@@H]2O[C@H](C)C[C@H](N(C)C)[C@H]2O)[C@](C)(OC(=O)NC/C=C/c2ccc(-c3ncccn3)cc2)C[C@@H](C)C(=O)[C@H](C)[C@H]2NC(=O)O[C@@]21C`, for which the MIC in experiment [1] came out at 0.5 µg/mL (≈ 0.535 µM); in experiment [2], 0.06 µg/mL (≈ 0.0642 µM); in experiment [3], 0.25 µg/mL (≈ 0.267 µM); in experiment [4] it was 0.12 µg/mL (≈ 0.128 µM); in experiment [5], 16 µg/mL (≈ 17.1 µM).

As to `CC[C@H]1OC(=O)[C@H](C)[C@@H](OC(=O)N(CC)Cc2cccnc2)[C@H](C)[C@@H](O[C@@H]2O[C@H](C)C[C@H](N(C)C)[C@H]2O)[C@](C)(OC(=O)NC/C=C/c2ccc(-c3ncccn3)cc2)C[C@@H](C)C(=O)[C@H](C)[C@H]2NC(=O)O[C@@]21C`, the MIC in experiment [1] was found to be 0.5 µg/mL (≈ 0.5 µM); in experiment [2] it was 0.06 µg/mL (≈ 0.06 µM); in experiment [3], 0.25 µg/mL (≈ 0.25 µM); in experiment [4], 0.12 µg/mL (≈ 0.12 µM); in experiment [5] it was 16 µg/mL (≈ 16 µM).

`CC[C@H]1OC(=O)[C@H](C)[C@@H](OC(=O)N(C)C)[C@H](C)[C@@H](O[C@@H]2O[C@H](C)C[C@H](N(C)C)[C@H]2O)[C@](C)(OC(=O)NC/C=C/c2ccc(-c3ncccn3)cc2)C[C@@H](C)C(=O)[C@H](C)[C@H]2NC(=O)O[C@@]21C`: the MIC in experiment [1] came out at 0.25 µg/mL (≈ 0.275 µM); in experiment [2] it was 0.03 µg/mL (≈ 0.033 µM); in experiment [3], 0.25 µg/mL (≈ 0.275 µM); in experiment [4], 0.06 µg/mL (≈ 0.066 µM); in experiment [5] it was 8 µg/mL (≈ 8.8 µM).

`CC[C@H]1OC(=O)[C@H](C)[C@@H](OC(=O)Cc2cccnc2)[C@H](C)[C@@H](O[C@@H]2O[C@H](C)C[C@H](N(C)C)[C@H]2O)[C@](C)(OC(=O)NC/C=C/c2cnc3ccccc3c2)C[C@@H](C)C(=O)[C@H](C)[C@H]2NC(=O)O[C@@]21C`: the MIC in experiment [1] amounted to 0.5 µg/mL (≈ 0.538 µM); in experiment [2] it was 0.06 µg/mL (≈ 0.0645 µM); in experiment [3], 0.12 µg/mL (≈ 0.129 µM); in experiment [4] it was 0.06 µg/mL (≈ 0.0645 µM); in experiment [5] it was 4 µg/mL (≈ 4.3 µM).

As for `CC[C@H]1OC(=O)[C@H](C)[C@@H](OC(=O)C(C)C)[C@H](C)[C@@H](O[C@@H]2O[C@H](C)C[C@H](N(C)C)[C@H]2O)[C@](C)(OC(=O)NC/C=C/C=C/c2cccnc2)C[C@@H](C)C(=O)[C@H](C)[C@H]2NC(=O)O[C@@]21C`, the MIC in experiment [1] was found to be 0.5 µg/mL (≈ 0.583 µM); in experiment [2], 0.06 µg/mL (≈ 0.07 µM); in experiment [3], 0.25 µg/mL (≈ 0.292 µM); in experiment [4], 0.12 µg/mL (≈ 0.14 µM); in experiment [5] it was 4 µg/mL (≈ 4.67 µM).

As for `CC[C@H]1OC(=O)[C@H](C)[C@@H](OC(=O)N(C)c2ccncc2)[C@H](C)[C@@H](O[C@@H]2O[C@H](C)C[C@H](N(C)C)[C@H]2O)[C@](C)(OC(=O)NC/C=C/c2ccc(-c3ncccn3)cc2)C[C@@H](C)C(=O)[C@H](C)[C@H]2NC(=O)O[C@@]21C`, the MIC worked out at 1 µg/mL (≈ 1.03 µM) in experiment [1]; 0.06 µg/mL (≈ 0.0617 µM) in experiment [2]; 0.25 µg/mL (≈ 0.257 µM) in experiment [3]; 0.25 µg/mL (≈ 0.257 µM) in experiment [4]; 8 µg/mL (≈ 8.23 µM) in experiment [5].

In the case of `CC[C@H]1OC(=O)[C@H](C)[C@@H](OC(=O)N(C)Cc2cccnc2)[C@H](C)[C@@H](O[C@@H]2O[C@H](C)C[C@H](N(C)C)[C@H]2O)[C@](C)(OC(=O)NC/C=C/c2ccc(-c3ncccn3)cc2)C[C@@H](C)C(=O)[C@H](C)[C@H]2NC(=O)O[C@@]21C`, the MIC in experiment [1] worked out at 0.25 µg/mL (≈ 0.254 µM); in experiment [2], 0.03 µg/mL (≈ 0.0304 µM); in experiment [3], 0.5 µg/mL (≈ 0.507 µM); in experiment [4], 0.06 µg/mL (≈ 0.0608 µM); in experiment [5], 4 µg/mL (≈ 4.06 µM).

For the molecule `CC[C@H]1OC(=O)[C@H](C)[C@@H](OC(=O)NC2CCCCC2)[C@H](C)[C@@H](O[C@@H]2O[C@H](C)C[C@H](N(C)C)[C@H]2O)[C@](C)(OC(=O)NC/C=C/c2ccc(-c3ncccn3)cc2)C[C@@H](C)C(=O)[C@H](C)[C@H]2NC(=O)O[C@@]21C`, the MIC in experiment [1] turned out to be 1 µg/mL (≈ 1.04 µM); in experiment [2], 0.12 µg/mL (≈ 0.125 µM); in experiment [3] it was 4 µg/mL (≈ 4.15 µM); in experiment [4], 0.25 µg/mL (≈ 0.26 µM); in experiment [5], 16 µg/mL (≈ 16.6 µM).

Consider `CC[C@H]1OC(=O)[C@H](C)[C@@H](OC(=O)Cc2cccnc2)[C@H](C)[C@@H](O[C@@H]2O[C@H](C)C[C@H](N(C)C)[C@H]2O)[C@](C)(OC(=O)NC/C=C/C=C/c2cccnc2)C[C@@H](C)C(=O)[C@H](C)[C@H]2NC(=O)O[C@@]21C`, for which the MIC is 0.5 µg/mL (≈ 0.552 µM) in experiment [1]; 0.03 µg/mL (≈ 0.0331 µM) in experiment [2]; 0.12 µg/mL (≈ 0.132 µM) in experiment [3]; 0.12 µg/mL (≈ 0.132 µM) in experiment [4]; 2 µg/mL (≈ 2.21 µM) in experiment [5].

As to `CC[C@H]1OC(=O)[C@H](C)[C@@H](OC(=O)Cc2cccnc2)[C@H](C)[C@@H](O[C@@H]2O[C@H](C)C[C@H](N(C)C)[C@H]2O)[C@](C)(OC(=O)NC/C=C/c2cnc(C3CC3)nc2)C[C@@H](C)C(=O)[C@H](C)[C@H]2NC(=O)O[C@@]21C`, the MIC in experiment [1] was determined as 0.5 µg/mL (≈ 0.543 µM); in experiment [2] it was 0.06 µg/mL (≈ 0.0651 µM); in experiment [3], 0.25 µg/mL (≈ 0.271 µM); in experiment [4] it was 0.25 µg/mL (≈ 0.271 µM); in experiment [5], 2 µg/mL (≈ 2.17 µM).

As for `CC[C@H]1OC(=O)[C@H](C)[C@@H](O[C@H]2C[C@@](C)(OC)[C@@H](O)[C@H](C)O2)[C@H](C)[C@@H](O[C@@H]2O[C@H](C)C[C@H](N(C)C)[C@H]2O)[C@](C)(O)C[C@@H](C)C(=O)[C@H](C)[C@@H](O)[C@]1(C)O` [ERYTHROMYCIN], the MIC in experiment [1] was 0.5 µg/mL (≈ 0.681 µM); in experiment [2], 0.06 µg/mL (≈ 0.0818 µM); in experiment [3], over 16 µg/mL; in experiment [4] it was 4 µg/mL (≈ 5.45 µM); in experiment [5] it was 8 µg/mL (≈ 10.9 µM).

`CC[C@H]1OC(=O)[C@H](C)C(=O)[C@H](C)[C@@H](O[C@@H]2O[C@H](C)C[C@H](N(C)C)[C@H]2O)[C@](C)(OC)C[C@@H](C)C(=O)[C@H](C)[C@H]2N(CCCCn3cnc(-c4cccnc4)c3)C(=O)O[C@]12C` [TELITHROMYCIN]: the MIC in experiment [1] is 0.25 µg/mL (≈ 0.308 µM); in experiment [2], 0.03 µg/mL (≈ 0.0369 µM); in experiment [3], 0.06 µg/mL (≈ 0.0739 µM); in experiment [4], 0.25 µg/mL (≈ 0.308 µM); in experiment [5], 2 µg/mL (≈ 2.46 µM).

Source of the values: ChEMBL document CHEMBL1138130, “Synthesis and antibacterial activity of 3-O-acyl-6-O-carbamoyl erythromycin A derivatives” (2006).
